# Test: Solubility of dicamba and its sodium salt
Structure (SMILES),amount dissolved in mixtures of a water-miscible glycol and water (glycol 30% or higher by weight of the mixture),"aqueous solubility (fully neutralized (molar equivalence of 1) sodium salt, water)"
"COc1c(Cl)ccc(Cl)c1C(=O)O [dicamba, 3,6-dichloro-2-methoxybenzoic acid]",about 45 % by weight of the solution,
"COc1c(Cl)ccc(Cl)c1C(=O)[O-].[Na+] [sodium salt of dicamba, sodium dicamba]",,about 35 wt. % acid equivalent
